The NIST ThermoML archive (doi:10.1021/je501118w)
Several values for one entry are separate records, joined by “and”; a condition that tells them apart may be missing. Identical values can stand only once. Numbers after ± are expanded uncertainties.

Conditions: Liquid, Vibrating tube method

CCCC[n+]1ccn(C)c1.O=S(=O)([N-]S(=O)(=O)C(F)(F)F)C(F)(F)F
Conditions | mass density
273.15 K, 100 kPa | 1460.67 ± 0.83 kg/m3
278.15 K, 100 kPa | 1455.84 ± 0.83 kg/m3
283.15 K, 100 kPa | 1451.04 ± 0.83 kg/m3
288.15 K, 100 kPa | 1446.23 ± 0.82 kg/m3
288.15 K, 10320 kPa | 1453.8 ± 3.1 kg/m3
288.15 K, 15130 kPa | 1457.1 ± 3.1 kg/m3
288.15 K, 20090 kPa | 1460.4 ± 3.1 kg/m3
288.15 K, 24820 kPa | 1463.6 ± 3.2 kg/m3
288.15 K, 25120 kPa | 1463.3 ± 3.2 kg/m3
288.15 K, 30620 kPa | 1467.3 ± 3.2 kg/m3
288.15 K, 39770 kPa | 1473 ± 3.3 kg/m3
288.15 K, 49640 kPa | 1478.8 ± 3.3 kg/m3
288.15 K, 50970 kPa | 1479.2 ± 3.3 kg/m3
288.15 K, 76000 kPa | 1493.8 ± 3.6 kg/m3
288.15 K, 100500 kPa | 1506 ± 3.9 kg/m3
288.15 K, 124500 kPa | 1517.8 ± 4.2 kg/m3
288.15 K, 150400 kPa | 1528.9 ± 4.6 kg/m3
288.15 K, 151000 kPa | 1529.4 ± 4.6 kg/m3
288.15 K, 175100 kPa | 1539.3 ± 5 kg/m3
288.15 K, 199900 kPa | 1548.8 ± 5.4 kg/m3
288.16 K, 99600 kPa | 1506 ± 3.8 kg/m3
293.15 K, 100 kPa | 1441.43 ± 0.82 kg/m3 and 1441.42 ± 0.82 kg/m3
298.15 K, 100 kPa | 1436.64 ± 0.82 kg/m3 and 1436.6 ± 0.82 kg/m3
298.15 K, 9760 kPa | 1444.2 ± 3.1 kg/m3
298.15 K, 15200 kPa | 1448.1 ± 3.1 kg/m3
298.15 K, 24770 kPa | 1454.6 ± 3.2 kg/m3
298.15 K, 24930 kPa | 1454.4 ± 3.2 kg/m3
298.15 K, 39560 kPa | 1464.3 ± 3.2 kg/m3
298.15 K, 50280 kPa | 1470.6 ± 3.3 kg/m3
298.15 K, 100700 kPa | 1498.7 ± 3.8 kg/m3
298.15 K, 124500 kPa | 1510.5 ± 4.2 kg/m3
298.15 K, 150300 kPa | 1522.1 ± 4.6 kg/m3
298.15 K, 174400 kPa | 1532.5 ± 5 kg/m3
298.15 K, 200400 kPa | 1543.2 ± 5.4 kg/m3 and 1542.9 ± 5.4 kg/m3
298.15 K, 249600 kPa | 1561.5 ± 6.4 kg/m3
298.16 K, 20120 kPa | 1451.5 ± 3.1 kg/m3
298.16 K, 30400 kPa | 1458.4 ± 3.2 kg/m3
298.16 K, 50110 kPa | 1470.9 ± 3.3 kg/m3
298.16 K, 75200 kPa | 1485.4 ± 3.6 kg/m3
298.16 K, 100200 kPa | 1498.6 ± 3.9 kg/m3
298.16 K, 150100 kPa | 1522.3 ± 4.6 kg/m3
298.16 K, 225500 kPa | 1553 ± 5.9 kg/m3
303.15 K, 100 kPa | 1431.86 ± 0.82 kg/m3
313.15 K, 100 kPa | 1422.34 ± 0.81 kg/m3
323.15 K, 100 kPa | 1412.87 ± 0.8 kg/m3 and 1412.85 ± 0.8 kg/m3
323.15 K, 15150 kPa | 1424.4 ± 3.1 kg/m3
323.15 K, 24310 kPa | 1431.5 ± 3.1 kg/m3
323.15 K, 24670 kPa | 1431.2 ± 3.1 kg/m3
323.15 K, 30100 kPa | 1435.1 ± 3.2 kg/m3
323.15 K, 39780 kPa | 1441.8 ± 3.2 kg/m3
323.15 K, 49910 kPa | 1448.4 ± 3.3 kg/m3
323.15 K, 50470 kPa | 1449.4 ± 3.3 kg/m3
323.15 K, 75400 kPa | 1463.9 ± 3.5 kg/m3
323.15 K, 99600 kPa | 1478.1 ± 3.8 kg/m3
323.15 K, 100500 kPa | 1478 ± 3.8 kg/m3
323.15 K, 124700 kPa | 1490.3 ± 4.1 kg/m3
323.15 K, 149600 kPa | 1502.1 ± 4.5 kg/m3 and 1502.8 ± 4.5 kg/m3
323.15 K, 174600 kPa | 1513 ± 4.8 kg/m3
323.15 K, 200000 kPa | 1524.7 ± 5.3 kg/m3
323.15 K, 225000 kPa | 1533.7 ± 5.7 kg/m3
323.15 K, 251500 kPa | 1543 ± 6.3 kg/m3
323.16 K, 10250 kPa | 1420.7 ± 3.1 kg/m3
323.16 K, 20180 kPa | 1428.1 ± 3.1 kg/m3
323.16 K, 201000 kPa | 1524.3 ± 5.3 kg/m3
333.15 K, 100 kPa | 1403.48 ± 0.8 kg/m3
343.15 K, 100 kPa | 1394.15 ± 0.79 kg/m3
348.15 K, 10050 kPa | 1397.8 ± 3.1 kg/m3
348.15 K, 15200 kPa | 1402 ± 3.1 kg/m3
348.15 K, 20220 kPa | 1405.9 ± 3.1 kg/m3
348.15 K, 24790 kPa | 1410.4 ± 3.1 kg/m3
348.15 K, 24830 kPa | 1409.3 ± 3.1 kg/m3
348.15 K, 30300 kPa | 1413.4 ± 3.2 kg/m3
348.15 K, 39980 kPa | 1420.5 ± 3.2 kg/m3
348.15 K, 49890 kPa | 1427.3 ± 3.3 kg/m3
348.15 K, 50730 kPa | 1429.7 ± 3.3 kg/m3
348.15 K, 75400 kPa | 1443.5 ± 3.5 kg/m3
348.15 K, 100300 kPa | 1460.9 ± 3.8 kg/m3
348.15 K, 100500 kPa | 1458.5 ± 3.8 kg/m3
348.15 K, 125100 kPa | 1471.9 ± 4 kg/m3
348.15 K, 150000 kPa | 1484.2 ± 6.5 kg/m3
348.15 K, 150500 kPa | 1487.2 ± 6.5 kg/m3
348.15 K, 174700 kPa | 1495.6 ± 4.8 kg/m3
348.15 K, 199200 kPa | 1509.2 ± 5.4 kg/m3
348.15 K, 200600 kPa | 1506.6 ± 5.4 kg/m3
348.15 K, 225700 kPa | 1517 ± 5.6 kg/m3
348.15 K, 250700 kPa | 1526.9 ± 6.1 kg/m3
353.15 K, 100 kPa | 1384.88 ± 0.79 kg/m3
363.15 K, 100 kPa | 1375.67 ± 0.78 kg/m3

CCCCCC[n+]1ccn(C)c1.O=S(=O)([N-]S(=O)(=O)C(F)(F)F)C(F)(F)F
Conditions | mass density
273.15 K, 101.33 kPa | 1395.63 ± 0.8 kg/m3 and 1395.14 ± 0.8 kg/m3 and 1395.28 ± 0.8 kg/m3
278.15 K, 101.33 kPa | 1390.37 ± 0.79 kg/m3 and 1390.93 ± 0.79 kg/m3
283.15 K, 101.33 kPa | 1385.72 ± 0.79 kg/m3 and 1385.89 ± 0.79 kg/m3 and 1386.23 ± 0.79 kg/m3
288.15 K, 101.33 kPa | 1381.16 ± 0.79 kg/m3 and 1381.54 ± 0.79 kg/m3
288.15 K, 14950 kPa | 1393.3 ± 3.1 kg/m3
288.15 K, 20180 kPa | 1396.8 ± 3.1 kg/m3
288.15 K, 25080 kPa | 1400 ± 3.1 kg/m3
288.15 K, 30100 kPa | 1403.2 ± 3.1 kg/m3
288.15 K, 40120 kPa | 1409.5 ± 3.2 kg/m3
288.15 K, 49940 kPa | 1415.3 ± 3.3 kg/m3
288.15 K, 75500 kPa | 1429.5 ± 3.5 kg/m3
288.15 K, 124700 kPa | 1453.9 ± 4 kg/m3
288.15 K, 174600 kPa | 1474.9 ± 4.6 kg/m3
288.16 K, 100000 kPa | 1442.2 ± 3.7 kg/m3
288.16 K, 150500 kPa | 1465 ± 4.3 kg/m3
293.15 K, 101.33 kPa | 1376.86 ± 0.79 kg/m3 [middle of 4 runs]
298.15 K, 101.33 kPa | 1372.17 ± 0.78 kg/m3 [middle of 4 runs]
303.15 K, 101.33 kPa | 1367.48 ± 0.78 kg/m3 and 1367.61 ± 0.78 kg/m3
313.15 K, 101.33 kPa | 1358.37 ± 0.78 kg/m3 and 1358.51 ± 0.78 kg/m3 and 1358.44 ± 0.78 kg/m3
323.15 K, 101.33 kPa | 1349.3 ± 0.77 kg/m3 and 1349.43 ± 0.77 kg/m3 and 1349.35 ± 0.77 kg/m3
333.15 K, 101.33 kPa | 1340.33 ± 0.77 kg/m3 and 1340.27 ± 0.77 kg/m3 and 1340.4 ± 0.77 kg/m3
343.15 K, 101.33 kPa | 1331.36 ± 0.76 kg/m3 and 1331.29 ± 0.76 kg/m3 and 1331.38 ± 0.76 kg/m3
353.15 K, 101.33 kPa | 1322.46 ± 0.76 kg/m3 and 1322.34 ± 0.76 kg/m3 and 1322.43 ± 0.76 kg/m3
363.15 K, 101.33 kPa | 1313.62 ± 0.75 kg/m3 and 1313.44 ± 0.75 kg/m3 and 1313.52 ± 0.75 kg/m3
